# In patent publication US20080248574A1, “ANTAGONISTS OF THE INTERACTION OF MELANOMA INHIBITORY ACTIVITY (MIA) AND P66SHC” (University of Pittsburgh - Of the Commonwealth System of …, priority 2007, published 2008):
# Ends that are not written are not given here.
# What was measured:
# [1] = tested on: MIA-expressing HMB2 human metastatic melanoma cells; assay: Entry of FITC-labeled polypeptide into HMB2 cells (phase contrast and image capture); assay type: cell-based; conditions: 10 μM FITC-labeled polypeptide, 2.5 hours after addition
# Procedure: The ability of a polypeptide comprising SEQ ID NO: 4 to enter and sensitize MIA-expressing HMB2 human metastatic melanoma cells to oxidative stress-induced death was examined. Cells were treated with 10 μM FITC-labeled polypeptide, followed by phase contrast and image capture.
# [2] = tested on: HMB2 melanoma cells; assay: H2O2-induced cell death in HMB2 cells, cell viability by MTT absorbance; assay type: cell-based, human; conditions: 20 μM polypeptide; 50 μM H2O2 two hours later; viability after 24 hours; versus H2O2-treated cells in the absence of polypeptide; p<0.05; FIG. 1
# Procedure: FIG. 1 is a graph showing the percentage of cell viability measured by MTT absorbance in HMB2 melanoma cells that were treated with a polypeptide comprising SEQ ID NO: 1 and SEQ ID NO: 2 (TAT-peptide) and H2O2.
# To determine the effect of the administration of a polypeptide comprising SEQ ID NO: 1 on H2O2-induced cell death, HMB2 cells were administered 20 μM of the polypeptide. Two hours following the polypeptide administration, the cells were treated with 50 μM of H2O2. After 24 hours, the cell viability was quantified using MTT absorbance.
Substance,transduction of cells with the peptide [1],"sensitivity of H2O2-treated cells to H2O2-death (cell viability, MTT absorbance) [2]"
"polypeptide comprising SEQ ID NO: 4: Polypeptide comprising a BRR domain (HIV TAT), spacer and CH2 domain portion of p66shc; FITC-labeled in the test (YGRKKRRQRRGGGSLGPILPPLPGDDSPTTLCS; also: FITC label, position not given here)",the majority of the cells were transduced,–
polypeptide comprising SEQ ID NO: 1: Polypeptide comprising residues 41-60 of the p66shc CH2 domain (SEQ ID NO: 1) and HIV TAT (SEQ ID NO: 2) (SLGPILPPLPGDDSPTTLCSYGRKKRRQRR),–,significantly increased
